According to PMC12067128, “Macrocyclization: Enhancing Drug-like Properties of Discoidin Domain Receptor Kinase Inhibitors” (ACS Medicinal Chemistry Letters, 2025):

Legend:
DDR1 = biological target: T1, DDR1 (Homo sapiens, UniProt Q08345); assay: PathHunter U2OS DDR1 Functional Assay (DDR1 cellular assay); assay type: cell-based; details: U2OS PathHunter cells, collagen II stimulation; read-out: Cell DDR1 IC50
T1 construct: ProLink™ (PK) tagged full-length DDR1b; host or cells: U2OS human osteosarcoma cells (PathHunter U2OS DDR1)
Method: page 17: In vitro Biology DDR1 cellular assay The activity of Discoidin Domain-containing Receptor protein kinase (DDR) inhibitors was determined using the PathHunter® U2OS DDR1 Functional Assay which employs Enzyme Fragment Complementation (EFC) technology, where the β-galactosidase (β-gal) enzyme is split into two fragments, ProLink (PK) and Enzyme Acceptor (EA). Independently these fragments […] β-gal enzyme. In the PathHunter® U2OS DDR1 Functional Assay, the U2OS human osteosarcoma cell line is modified to co-express a ProLinkTM (PK) tagged full-length DDR1b and an Enzyme Acceptor (EA) tagged SH2 domain. Collagen II, as a ligand, induces activation of DDR1b which results in cross-phosphorylation. The SH2-EA fusion protein then specifically binds the phosphorylated receptor resulting in complementation of the two fragments of β-gal and formation of a functional enzyme. β-gal activity is then quantitatively detected using a chemiluminescent substrate. PathHunter® Human U2OS DDR1 cells were prepared in AssayCompleteTM Cell Plating 16 Reagent (DiscoverX 93-0563R16A) and plated at 5000 cells/well in a 384-well white, clear-bottom, sterile plate (ThermoFisher 142762) and incubated for 90 minutes at 37 °C, 5% CO2. Test compounds were serially diluted from a top concentration of 10 mM (1000x final assay concentration) directly in a 384-well low-volume polypropylene plate (Greiner bio-one 784201) using an Echo 555 acoustic liquid handler (Labcyte). Test compounds were diluted in AssayCompleteTM Cell Plating 16 Reagent then added to cells using an Integra ViaFlow384 electronic reagent dispenser and pre-incubated at 37 °C, 5% CO2 for 30 minutes. Following compound pre-incubation, the cells were stimulated with 20 μg/ml Bovine Type II Collagen (DiscoverX 92-1090) with incubation for 20 hours at 37 °C, 5% CO2. Next, PathHunter Detection Reagent (DiscoverX 93-[…]) was added to the cells, incubated for 60 minutes at 25 °C in the dark, prior to capturing the chemiluminescent signal on a PHERAstar (BMG LABTECH). The percentage of inhibition was calculated for each concentration of compound using a 0.1% DMSO vehicle/Collagen II control response as a 0% inhibition and a 10 nM Dasatinib/Collagen II positive 17 page 18: control response as a 100% inhibition. The final assay concentration of the top of the test compound CRC was 10 μM. 18

Kinetic solubility = assay type: physicochemical
Method: Using a stock solution of test compound in 100% DMSO, duplicate dilutions were prepared at a nominal concentration of 200 µM in 0.1 M phosphate buffered saline (PBS) at pH 7.4, with a 2% final DMSO content. Test compound calibration standards were prepared at 200 µM and 10 µM in 100%
DMSO. The PBS and DMSO dilutions were equilibrated on a shaking platform at room temperature for two hours prior to filtration using a Multiscreen HTS solubility filter plate (Millipore). Filtrates were analysed by LC-UV-MS and the concentration of compound in PBS filtrate determined by comparing the UV absorbance peak with that of the two DMSO calibration standards. Mass spectrometry will be used to confirm the presence of the expected molecular ion in the UV peak measured. The effective range of the assay is 5 – 200 µM. […]

[1] = Microsomes stability (clearance in human microsomes); assay type: in vitro ADME; details: liver microsomes, pH 7.4, 0.8 mg protein/mL, 1 mM NADPH, 37 °C, read-out: CLint h mic (clearance in human microsomes)
Method: values in Caco-2 assay were: <10 nm/s = low level; 10-50 nm/s = medium level; >50 nm/s = high […]
Test compounds were incubated, in duplicate, at the concentration of 1 μM with liver microsomes (0.8 mg protein/mL) in Dulbecco’s buffer (pH 7.4) at 37 °C in the presence of 1 mM NADPH. At different time points (0, 5, 10, 20, 30, and 60 min), 50 μL aliquots of the incubates were taken, added with 80 μL of ice-cold acetonitrile, and 20 μL of 1 μM warfarin in acetonitrile (injection check) to stop the reaction, and samples were centrifuged. The supernatants were analyzed by LC−MS/MS for unchanged compounds. Test compounds were incubated with liver microsomes in Dulbecco’s buffer in the absence of NADPH for 0 and 60 min, as control. Midazolam at the concentration of 1 μM, was incubated with microsomes as positive control for phase I activity of microsomes. Control samples were processed as test compound samples.

[2] = ChromLogD chromatographic lipophilicity; assay type: physicochemical; details: C18 column, pH 7.4
Method: The chromatographic method was based on the differential retention times of test compounds on a C18 column (Luna C18(2), 30 x 2mm, […], 100 Å) under controlled liquid chromatography conditions, comparing retention times with those of standards (Benzyl Alcohol, p-Nitrophenol, Bromobenzene, Anthracene) with known log D values. Stock solutions (10 mM in DMSO) of test compounds were diluted to a final concentration of 1 mM. The mobile phases consisted of A (20mM Ammonium Acetate buffered to pH 7.4 with ammonia hydroxide) and B (ACN). The LC gradient profile was the following: a linear increase to 90% B during 0.0 to 1.3 min, hold at 90 % B during 1.3 to 1.53 min then back to 0.0% B from 1.53 to 1.60 min, hold at 0% B until the end of the run (2.00 min). 1 μL of the sample volume was injected, using a flow rate of 0.5 mL/min and a column temperature of 40°C. All compounds were detected by UPLC/MS analysis using a a Waters ACQUITY UPLC equipped with a Photo Diode Array (PDA) detector coupled with a Waters ACQUITY QDa single quadrupole mass spectrometer with an Electrospray ionization (ESI) source.
The retention times were obtained by processing data in Waters Openlynx. The standards are then plotted in excel and the best fit line was used as the basis for calculating the unknown LogD values from the retention times of the peaks obtained.

[3] = BRlogD chromatographic lipophilicity; assay type: physicochemical; details: XBridge Shield RP18, pH 7.0, 60% acetonitrile
Method: The original method was described in a previous paper.e Briefly, a HPLC Thermo Fisher Scientific Dionex Ultimate 3000 instrument equipped with a Low-Pressure Mixing Gradient Pump LPG-3400 SD, ACC-3000 autosampler with termostatable column compartment, a DAD-3000 RS Detector and Chromeleon Data System Version 7.2.10 was used. Deionized water and HPLC grade acetonitrile were used throughout. The mobile phases consisted of 20 mM ammonium acetate at pH 7.0 and acetonitrile 60% v/v. Samples were dissolved in a 1:1 mixture of buffer/acetonitrile in the concentration range of 50–100 ug/mL. A 10uL volume of each solution was injected at 30°C and flow rate was 1 mL/min. The dead time, t0, was determined by monitoring the baseline disturbance.
retention time (tR) was measured on a XBridgeTM Shield RP18 (Waters, 5cm x 4.6 mm, 5 µm particle size, 130Å pore size). Isocratic log k’ (capacity factor k’ = (tR - t0)/t0) values were measured. The relationship between log D and log k’60 has been determined previously and is reported below (Eq.
We termed this log D as BRlogD.

[4] = log kW IAM (immobilized artificial membrane chromatography); assay type: physicochemical; details: lipophilicity descriptor, phospholipid interaction
Excerpt: (§1) Lipophilicity has been obtained in four different systems. BRlogD and ChromlogD are chromatographic surrogates of log Doct and, despite showing different values, are linearly correlated (Figure S4). Log k′ 80 PLRP-S is a surrogate of log Dtol. Log kw ^IAM mimics the interaction between the compounds and the phospholipids of membranes. The combination of the experimental lipophilicity descriptors is essential to evaluate lipophilicity in different regions of the membrane bilayer. This complete lipophilicity profile may give an idea of the permeability potential of poorly soluble compounds for which standard permeability measurements are unreliable. […] This is supported by its low IC50 value in the cell-based assay.

[5] = log k'80 PLRP-S chromatographic descriptor; assay type: physicochemical; details: surrogate of log Dtol
Excerpt: as §1

[6] = Δlog kW IAM polarity descriptor; assay type: physicochemical; details: polarity in aqueous medium
Method: (§2) Polarity is quantified by two descriptors: EPSA and Δlog kw ^IAM. The first is measured in an almost fully nonpolar environment, and the second describes polarity in an aqueous medium. […] This is also in line with the higher solubility of KIMCs over 1.

EPSA polarity descriptor = assay type: physicochemical; details: almost fully nonpolar environment; polarity in nonpolar environment
Method: as §2

[7] = Chamelogk chameleonicity descriptor; assay type: physicochemical; details: >0.6 = chameleons, <0.6 = non-chameleons
Method: Finally, chameleonicity was measured with the recently described Chamelogk method (Table ), where 0.6 is the threshold value to distinguish chameleons from non-chameleons.

T1 sequence (Q08345 19-913): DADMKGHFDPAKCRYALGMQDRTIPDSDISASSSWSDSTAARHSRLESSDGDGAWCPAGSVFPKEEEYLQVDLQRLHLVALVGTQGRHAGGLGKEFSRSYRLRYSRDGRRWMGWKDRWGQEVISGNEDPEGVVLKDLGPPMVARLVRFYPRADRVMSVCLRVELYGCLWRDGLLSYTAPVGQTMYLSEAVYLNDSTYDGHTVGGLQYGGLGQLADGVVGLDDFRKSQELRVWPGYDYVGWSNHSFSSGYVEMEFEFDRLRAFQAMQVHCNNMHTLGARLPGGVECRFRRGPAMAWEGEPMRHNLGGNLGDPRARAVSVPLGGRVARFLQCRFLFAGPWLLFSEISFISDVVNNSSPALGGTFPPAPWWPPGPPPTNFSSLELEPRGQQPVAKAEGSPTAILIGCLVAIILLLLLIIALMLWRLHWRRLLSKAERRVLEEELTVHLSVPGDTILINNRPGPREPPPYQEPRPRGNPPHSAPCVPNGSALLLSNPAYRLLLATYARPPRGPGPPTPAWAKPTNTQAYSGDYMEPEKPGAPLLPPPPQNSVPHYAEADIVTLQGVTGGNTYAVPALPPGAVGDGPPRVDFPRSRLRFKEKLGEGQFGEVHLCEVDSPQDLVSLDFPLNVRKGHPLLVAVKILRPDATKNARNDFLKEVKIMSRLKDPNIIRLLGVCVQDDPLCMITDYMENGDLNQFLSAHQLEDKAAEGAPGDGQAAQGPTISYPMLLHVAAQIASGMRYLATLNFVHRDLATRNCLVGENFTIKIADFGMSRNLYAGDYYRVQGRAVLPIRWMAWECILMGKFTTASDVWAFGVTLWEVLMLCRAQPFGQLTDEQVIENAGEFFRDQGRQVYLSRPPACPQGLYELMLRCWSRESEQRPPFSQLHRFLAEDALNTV

**Q.** With Cc1ccc(C(=O)Nc2cccc(C(F)(F)F)c2)cc1-c1cc2nc(Nc3cnn(C)c3)ncc2[nH]1 [Compound 1] as the compound, how does the IC50 (DDR1) read?
**A.** The IC50 was 3 nM.

**Q.** What about the “kinetic solubility (in words)” value (Kinetic solubility) of the same compound?
**A.** The value was “almost insoluble”.

**Q.** What about the solubility kinetic at 2 h (Kinetic solubility; phosphate buffered saline, PBS pH 7.4, 2% DMSO, 2 h room temperature, assay range 5-200 µM, read-out: KS (kinetic solubility)) of the same compound?
**A.** Its solubility kinetic at 2 h is less than 5 µM.

**Q.** What about the microsomal CLint at 1 h, 1 µM [1] of the same compound?
**A.** The microsomal CLint at 1 h, 1 µM was 19 ± 2.1 µL/min/mg.

**Q.** And the chromatographic logD [2]?
**A.** Its chromatographic logD is 2.92.

**Q.** What about the BRlogD [3] of the same compound?
**A.** The BRlogD was 3.36.

**Q.** And the “log kW^IAM” value [4]?
**A.** Its value is 2.53.

**Q.** And the “logk'80 PLRP-S” value [5]?
**A.** Its value is -0.3.

**Q.** What about the “Δlog kW^IAM” value [6] of the same compound?
**A.** Its value is 0.47.

**Q.** What about the EPSA (EPSA polarity descriptor) of the same compound?
**A.** Its EPSA is 106 A^2.

**Q.** And the Chamelogk [7]?
**A.** The Chamelogk was 0.99.
